For orientation: Ki means the dissociation constant of the complex between target and ligand, obtained from inhibition or displacement. Read a low Ki as a stronger hold on the target.

The assay concerns the target T1, activated human C1s (Homo sapiens, UniProt P09871).
T1 construct: purchased Calbiochem (La Jolla, Calif.)
T1 sequence (P09871 438-688 limits assumed): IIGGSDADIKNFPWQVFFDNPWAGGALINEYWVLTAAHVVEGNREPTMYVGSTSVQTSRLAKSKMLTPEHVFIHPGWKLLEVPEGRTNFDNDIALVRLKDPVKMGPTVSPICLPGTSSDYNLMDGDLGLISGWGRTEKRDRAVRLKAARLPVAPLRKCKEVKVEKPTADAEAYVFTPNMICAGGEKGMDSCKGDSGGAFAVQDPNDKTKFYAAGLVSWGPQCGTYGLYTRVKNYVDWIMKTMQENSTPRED
T1 sequence (P09871 16-437 partner limits assumed): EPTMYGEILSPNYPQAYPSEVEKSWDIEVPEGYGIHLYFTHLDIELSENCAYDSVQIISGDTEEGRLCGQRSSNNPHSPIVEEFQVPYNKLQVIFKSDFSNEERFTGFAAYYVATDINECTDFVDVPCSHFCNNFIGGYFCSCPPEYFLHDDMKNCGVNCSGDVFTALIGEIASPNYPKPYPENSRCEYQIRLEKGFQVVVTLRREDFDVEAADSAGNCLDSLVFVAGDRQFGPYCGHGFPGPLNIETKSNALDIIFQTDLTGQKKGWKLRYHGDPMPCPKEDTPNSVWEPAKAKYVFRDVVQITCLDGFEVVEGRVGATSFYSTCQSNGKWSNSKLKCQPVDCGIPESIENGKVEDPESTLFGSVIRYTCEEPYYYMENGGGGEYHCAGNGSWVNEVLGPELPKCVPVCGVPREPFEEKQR
The assay is described as follows: In vitro inhibition of C1s: Ki determination, C1s-catalyzed hydrolysis of Z-Gly-Arg-S-Bzl detected with DTNB. Format: biochemical. To be noted: purified activated human C1s 2.3 nM, Z-Gly-Arg-S-Bzl 45 μM, DTNB 200 μM, pH 7.5, 37° C., absorbance at 405 nm. Here is the method: Reagents: All buffer salts were obtained from Sigma Chemical Company (St. Louis, Mo.), and were of the highest purity available. DTNB was purchased from Pierce (Rockford, Ill.). Z-Gly-Arg-S-Bzl was purchased from Enzyme Systems Products (Livermore, Calif.). Activated human C1s was purchased from Calbiochem (La Jolla, Calif.).
Test compounds are prepared as a 10 μM solution in DMSO. Dilutions are prepared in DMSO yielding 7 final concentrations encompassing a 700-fold concentration range.
Reactions were initiated by the addition of a 10 μL aliquot of the enzyme, and the absorbance increase at 405 nm is continuously recorded for 15 minutes in a Molecular Devices plate reader. Final DMSO concentration was 4.3%. […] The ratio of the velocity (rate of change in absorbance as a function of time) for a sample containing no test compound is divided by the velocity of a sample containing test compound, and is plotted as a function of test compound concentration. The data are fit to a linear regression, and the value of the slope of the line calculated. The inverse of the slope is the experimentally determined Ki value.

`CSc1sc(C(=N)NC(=O)OC(C)(C)C)cc1S(=O)(=O)c1cccc(-c2ccc(S(C)(=O)=O)cc2)c1` [Example 57, {Imino-[4-(4′-methanesulfonyl-biphenyl-3-sulfonyl)-5-methylsulfanyl-thiophen-2-yl]-methyl}-carbamic acid tert-butyl ester]: the Ki lay within 6 to 23 nM.

In turn, `CSc1sc(C(=N)N)cc1S(=O)(=O)c1cccc(-c2ccsc2)c1` [Example 77, 5-Methylsulfanyl-4-(3-thiophen-3-yl-benzenesulfonyl)-thiophene-2-carboxamidine] displayed a Ki of 6 to 23 nM.

With `CSc1sc(C(=N)N)cc1S(=O)(=O)c1cccc(-c2c(C)cc(NC(=N)N)cc2NC(=O)NCCCCCC(=O)O)c1` [Example 259], the Ki was 6 to 23 nM.

The record behind these values is US7138530B2, “Thiophene amidines, compositions thereof, and methods of treating complement-mediated diseases and conditions” (3-Dimensional Pharmaceuticals, Inc., priority 2002, dated 2006).
